For 10 compounds, MIC results are on record in DBAASP.

Among the test systems are Pseudomonas aeruginosa; Escherichia coli; Bacillus subtilis; Proteus mirabilis; Klebsiella pneumoniae; Staphylococcus aureus; Salmonella typhimurium; Shigella dysenteriae; Micrococcus luteus; Escherichia coli K-12; Listeria innocua; Leuconostoc lactis.
Assay in all cases: ≥ marks a high value that may be exact or a test limit, other limits are often not marked, values filed in µg/mL are converted to µM
Assay [1] relates to Staphylococcus epidermidis.
Assay [2] relates to Staphylococcus aureus USA 300.
The subject of assay [3] is Clavibacter michiganensis subsp. michiganensis DSM 46294.
Assay [4] has as its system Pseudomonas syringae pv. tomato DC3000.
For assay [5], the system named is Pectobacterium carotovorum subsp. carotovorum DSM 30168.
The subject of assay [6] is Xanthomonas vesicatoria DSM 50861.
Assay [7] has as its system Pseudomonas syringae pv. syringae DSM 10604.
Assay [8] concerns Pseudomonas corrugata DSM 7228.
Assay [9] relates to Pseudomonas aeruginosa ATCC 27853.
Assay [10] relates to Staphylococcus aureus ATCC 6538.
The subject of assay [11] is Shigella dysenteriae ATCC 9752.
Assay [12] has as its system Klebsiella pneumoniae ATCC 10031.
Assay [13] relates to Salmonella enterica subsp. enterica serovar Typhimurium ATCC 14028.
Assay [14] relates to Escherichia coli ATCC 25922.
In assay [15] the test system is Staphylococcus aureus ATCC 6538P.
The subject of assay [16] is Staphylococcus epidermidis ATCC 12228.
Assay [17] has as its system Bacillus subtilis ATCC 6633.

Each structure is given as a SMILES string. Converted amounts (≈) assume the structure as drawn.

One may read the MIC as the lowest concentration found to suppress growth. The low end stands for greater potency, the high end for weaker potency.

Take `CC(C)C[C@H](NC(=O)[C@H](C)NC(=O)CNC(=O)[C@H](CC(C)C)NC(=O)[C@@H](N)Cc1ccccc1)C(=O)N[C@@H](Cc1ccccc1)C(=O)N[C@@H](CCCCN)C(=O)N[C@@H](CCCCN)C(=O)N[C@@H](C)C(=O)N[C@@H](CO)C(=O)N[C@@H](CCCCN)C(=O)O` [FLGALFKKASK]: the MIC was more than 165 µM in the assay on Pseudomonas aeruginosa; more than 165 µM in the assay on Escherichia coli; not below 82.7 µM in the assay on Bacillus subtilis; not below 165 µM in the assay with Proteus mirabilis; not below 165 µM in assay [1]; more than 165 µM with Klebsiella pneumoniae. Also, the MIC with Staphylococcus aureus was 165 µM (≈ 200 µg/mL); with Salmonella typhimurium it was not below 165 µM; with Shigella dysenteriae it was not below 165 µM; against Micrococcus luteus, 10.3 µM (≈ 12.5 µg/mL).

`CC(C)C[C@H](NC(=O)[C@H](C)NC(=O)CNC(=O)[C@H](CC(C)C)NC(=O)[C@@H](N)Cc1ccccc1)C(=O)N[C@@H](Cc1ccccc1)C(=O)N[C@@H](CCCCN)C(=O)N[C@H](C(=O)N[C@@H](C)C(=O)O)C(C)C` [FLGALFKVA]: the MIC was more than 207 µM with Pseudomonas aeruginosa; more than 207 µM with Escherichia coli; not below 207 µM against Bacillus subtilis; not below 207 µM against Proteus mirabilis; not below 207 µM in assay [1]; more than 207 µM with Klebsiella pneumoniae. Further, the MIC is more than 207 µM in the assay with Staphylococcus aureus, not below 207 µM with Salmonella typhimurium, not below 207 µM in the assay on Shigella dysenteriae and not below 207 µM against Micrococcus luteus.

For the compound `CC[C@H](C)[C@H](NC(=O)[C@H](CCCN=C(N)N)NC(=O)[C@H](CCC(N)=O)NC(=O)[C@@H](NC(=O)[C@@H](NC(=O)[C@H](CCCN=C(N)N)NC(=O)[C@H](CCCN=C(N)N)NC(=O)[C@H](Cc1ccccc1)NC(=O)[C@H](CCC(=O)O)NC(=O)CN)[C@@H](C)CC)C(C)C)C(=O)N[C@@H](CCCN=C(N)N)C(=O)N[C@@H](CC(=O)O)C(=O)N[C@@H](Cc1ccccc1)C(=O)N[C@@H](CC(C)C)C(=O)N[C@@H](CCCN=C(N)N)C(=O)N[C@@H](CC(N)=O)C(=O)N[C@@H](CC(C)C)C(=O)N[C@H](C(N)=O)C(C)C` [GEFRRIVQRIRDFLRNLV], the MIC is 30 µM (≈ 68.6 µg/mL) in [2] and not below 60 µM in the assay with Escherichia coli K-12.

Consider `CC[C@H](C)[C@H](NC(=O)[C@H](CO)NC(=O)[C@H](CO)NC(=O)[C@@H](NC(=O)[C@H](CC(C)C)NC(=O)CN)C(C)C)C(=O)NCC(=O)N[C@@H](CCCCN)C(=O)N[C@H](C(=O)N[C@@H](CC(C)C)C(=O)NCC(=O)NCC(=O)N[C@@H](CC(C)C)C(=O)N[C@@H](CC(C)C)C(=O)N[C@@H](C)C(=O)N[C@@H](CC(=O)O)C(=O)N[C@H](C(=O)N[C@H](C(=O)N[C@@H](CCCCN)C(=O)N[C@@H](CO)C(=O)N[C@@H](CCCCN)C(=O)NCC(=O)N[C@@H](CCC(N)=O)C(=O)N1CCC[C@H]1C(=O)N[C@@H](C)C(=O)O)C(C)C)C(C)C)C(C)C` [GLVSSIGKVLGGLLADVVKSKGQPA], for which the MIC in the assay with Listeria innocua is not below 41.8 µM; in the assay on Leuconostoc lactis, 10.4 µM (≈ 25 µg/mL).

For the compound `CC[C@H](C)[C@H](NC(=O)[C@H](C)NC(=O)[C@H](CCCCN)NC(=O)[C@H](C)NC(=O)[C@@H](NC(=O)[C@H](CC(C)C)NC(=O)[C@H](CCCCN)NC(=O)[C@H](CC(C)C)NC(=O)[C@@H](NC(=O)[C@H](CCCCN)NC(=O)[C@@H](NC(=O)[C@H](C)NC(=O)[C@H](CCCCN)NC(=O)[C@H](CCCN=C(N)N)NC(=O)[C@H](CCCN=C(N)N)NC(=O)[C@@H](N)CCCCN)[C@@H](C)CC)[C@@H](C)CC)[C@@H](C)CC)C(=O)N[C@@H](CCCN=C(N)N)C(=O)N[C@@H](CCCCN)C(=O)N[C@@H](CCCCN)C(=O)N[C@@H](CCCN=C(N)N)C(N)=O` [KRRKAIKILKLIAKAIRKKR], the MIC in assay [3] is 0.103 µM (≈ 0.25 µg/mL); in assay [4], 4.11 µM (≈ 10 µg/mL); in assay [5] it was 4.11 µM (≈ 10 µg/mL); in assay [6], 0.0411 µM (≈ 0.0999 µg/mL); in [7] it was 4.11 µM (≈ 10 µg/mL); in assay [8], 0.103 µM (≈ 0.25 µg/mL).

`CC(C)C[C@H](NC(=O)[C@H](C)NC(=O)[C@H](Cc1ccccc1)NC(=O)[C@H](CCCN=C(N)N)NC(=O)[C@H](Cc1ccccc1)NC(=O)[C@H](C)NC(=O)[C@H](CCCN=C(N)N)NC(=O)[C@H](Cc1ccccc1)NC(=O)[C@H](C)NC(=O)[C@H](CC(C)C)NC(=O)[C@H](CCCCN)NC(=O)[C@H](CCCN=C(N)N)NC(=O)[C@H](CCCN=C(N)N)NC(=O)[C@@H](N)CCCCN)C(=O)N[C@@H](CCCCN)C(=O)N[C@@H](C)C(=O)N[C@H](C(=O)N[C@@H](CC(C)C)C(=O)N[C@@H](CCCCN)C(=O)N[C@@H](CCCCN)C(N)=O)C(C)C` [KRRKLAFRAFRFALKAVLKK]: the MIC came to 0.204 µM (≈ 0.5 µg/mL) in assay [3]; 1.02 µM (≈ 2.5 µg/mL) in assay [4]; 4.08 µM (≈ 10 µg/mL) in assay [5]; 0.102 µM (≈ 0.25 µg/mL) in assay [6]; 0.204 µM (≈ 0.5 µg/mL) in assay [7]; 0.102 µM (≈ 0.25 µg/mL) in [8].

Consider `CC(C)C[C@H](NC(=O)[C@H](C)NC(=O)[C@H](CC(C)C)NC(=O)[C@H](CCCN=C(N)N)NC(=O)[C@H](CCCN=C(N)N)NC(=O)[C@@H](N)CCCCN)C(=O)N[C@@H](Cc1ccccc1)C(=O)N[C@@H](CCCN=C(N)N)C(=O)N[C@@H](C)C(=O)N[C@@H](Cc1ccccc1)C(=O)N[C@@H](CCCN=C(N)N)C(=O)N[C@@H](CC(C)C)C(=O)N[C@@H](C)C(=O)N[C@@H](CC(C)C)C(=O)N[C@@H](CCCCN)C(=O)N[C@@H](CO)C(=O)N[C@H](C(=O)N[C@@H](CC(C)C)C(=O)N[C@@H](CCCCN)C(=O)N[C@@H](CCCCN)C(N)=O)C(C)C` [KRRLALFRAFRLALKSVLKK], for which the MIC stood at 0.0414 µM (≈ 0.0999 µg/mL) in assay [3]; 0.414 µM (≈ 1 µg/mL) in assay [4]; 4.14 µM (≈ 10 µg/mL) in assay [5]; 0.0414 µM (≈ 0.0999 µg/mL) in assay [6]; 4.14 µM (≈ 10 µg/mL) in assay [7]; 0.103 µM (≈ 0.25 µg/mL) in assay [8].

For the compound `CC[C@H](C)[C@H](NC(=O)[C@H](CC(N)=O)NC(=O)[C@H](CCCN=C(N)N)NC(=O)[C@H](C)NC(=O)[C@H](CCSC)NC(=O)[C@H](CCCCN)NC(=O)[C@H](CCC(=O)O)NC(=O)[C@@H](NC(=O)[C@H](CCCCN)NC(=O)[C@H](CCCCN)NC(=O)[C@H](Cc1ccccc1)NC(=O)[C@@H](NC(=O)[C@H](CCCCN)NC(=O)[C@H](Cc1c[nH]c2ccccc12)NC(=O)[C@@H](N)CCCCN)C(C)C)[C@@H](C)CC)C(=O)N[C@@H](CCCN=C(N)N)C(=O)N[C@@H](CC(N)=O)C(=O)N[C@@H](CCCCN)C(=O)N[C@H](C(=O)N[C@H](C(=O)N[C@@H](CCCCN)C(N)=O)C(C)C)[C@@H](C)CC` [KWKVFKKIEKMARNIRNKIVK], the MIC in assay [9] was more than 3 µM; in assay [10] it was more than 12 µM; against Escherichia coli K-12, 6 µM (≈ 15.9 µg/mL).

With `CC(C)C[C@H](NC(=O)[C@H](Cc1c[nH]c2ccccc12)NC(=O)[C@H](CCCCN)NC(=O)[C@H](CCCCN)NC(=O)[C@@H](N)CC(C)C)C(=O)N[C@@H](CCCCN)C(N)=O` [LKKWLK], the MIC in assay [11] is not below 245 µM; in assay [12], not below 245 µM; in assay [9], more than 245 µM; in assay [13], more than 245 µM; in assay [14] it was more than 245 µM; in assay [15] it was not below 245 µM. The MIC is more than 245 µM in assay [16] and not below 245 µM in [17].

Take `NCCCC[C@H](NC(=O)[C@H](Cc1ccccc1)NC(=O)[C@H](Cc1ccccc1)NC(=O)[C@H](CCCCN)NC(=O)[C@H](Cc1ccccc1)NC(=O)[C@H](CCCCN)NC(=O)[C@H](CCCCN)NC(=O)[C@H](CCCCN)NC(=O)[C@@H](N)CCCN=C(N)N)C(=O)N[C@@H](CCCN=C(N)N)C(=O)N[C@@H](Cc1ccccc1)C(=O)N[C@@H](Cc1ccccc1)C(N)=O` [RKKKFKFFKRFF]: the MIC in assay [3] was found to be 0.146 µM (≈ 0.25 µg/mL); in assay [4] it was 1.46 µM (≈ 2.5 µg/mL); in [5], 5.86 µM (≈ 9.99 µg/mL); in [6], 0.293 µM (≈ 0.5 µg/mL); in assay [7], 0.0586 µM (≈ 0.1 µg/mL); in assay [8] it was 0.0586 µM (≈ 0.1 µg/mL).
